Measurements from US20090131481A1, “Transcription Factor Modulating Compounds and Methods of Use Thereof” (Paratek Pharmaceuticals, Inc., published 2009).
pEC50: −log10 of the molar value. Where two headings read alike, the source gives them in different places.

How the values were obtained:
uncut plasmid DNA = assay: Qualitative agarose gel DNA intercalation assay; format: binding; conditions: 100 ng uncut plasmid DNA, compared with a known DNA intercalator
SoxS = molecular target: T1, SoxS (Escherichia coli, UniProt P0A9E2); assay: Chemiluminescence-based SoxS-DNA binding assay; set-up: made in house; species or system E. coli; conditions: for inhibition at 25 µg/mL: compound screening concentration of 25 μg/ml (footnote d); for pEC50: dose response analysis (footnote c), read-out: in vitro SoxS activity: concentration necessary to inhibit DNA-protein binding by 50% (EC50)
T1 sequence (P0A9E2 1-107): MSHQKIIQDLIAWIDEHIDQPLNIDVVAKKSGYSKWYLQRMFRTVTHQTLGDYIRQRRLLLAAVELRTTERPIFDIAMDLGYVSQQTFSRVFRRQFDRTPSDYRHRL

ExsA = molecular target: T2, ExsA (Pseudomonas aeruginosa, UniProt P26993); assay: Chemiluminescence-based ExsA-DNA binding assay; set-up: species or system P. aeruginosa
T2 construct: made in house
T2 sequence (P26993 1-278): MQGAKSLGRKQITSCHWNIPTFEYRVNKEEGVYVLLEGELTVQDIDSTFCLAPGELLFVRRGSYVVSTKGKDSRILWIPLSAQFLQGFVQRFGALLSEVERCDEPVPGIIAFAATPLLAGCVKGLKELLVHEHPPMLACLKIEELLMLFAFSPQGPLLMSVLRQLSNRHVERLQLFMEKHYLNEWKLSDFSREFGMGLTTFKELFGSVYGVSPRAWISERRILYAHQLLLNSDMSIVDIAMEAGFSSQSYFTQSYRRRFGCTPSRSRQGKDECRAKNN

LcrF (VirF) = LcrF (VirF) (Yersinia pestis, UniProt P28808); assay: biochemical; format: binding, Y. pseudotuberculosis
E. coli UPEC strain C189 = assay: Ascending pyelonephritis model of infection (Example 3); format: in vivo; conditions: female CD1 mice, oral dosing at infection and once a day for 4 days, 5-day infection
Y. pseudotuberculosis [1] = assay: microbe, parasite or virus in culture; conditions: Yersinia pseudotuberculosis, J774, read-out: % Cytotoxicity
SlyA = molecular target: T3, SlyA (Escherichia coli, UniProt P0A8W2); assay: biochemical; format: binding, E. coli
T3 sequence (P0A8W2 1-144): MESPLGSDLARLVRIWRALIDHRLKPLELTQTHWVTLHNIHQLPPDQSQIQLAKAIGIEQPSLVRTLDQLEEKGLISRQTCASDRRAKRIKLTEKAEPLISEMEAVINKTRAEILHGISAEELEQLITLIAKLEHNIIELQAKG

P. aeruginosa = P. aeruginosa cytotoxicity whole cell assay (J774 cells, LDH release); conditions: relative to vehicle treated cells infected with wild type P. aeruginosa
Y. pseudotuberculosis [2] = conditions: in vivo, sc, 25 mg/kg
Y. pseudotuberculosis [3] = conditions: in vivo, sc, 25 mg/kg; remark: listed apart in the source
[4] = read-out: % Inhibition (SoxS binding to DNA)
[5] = Table 7, cell-free system, read-out: ExsA EC50
[6] = EC50 for inhibition of LcrF(VirF)-DNA binding
[7] = compound screening concentration of 50 μg/ml (footnote b), read-out: in vitro SoxS activity: percent inhibition of DNA-protein binding
[8] = read-out: in vitro SoxS activity: percent inhibition of DNA-protein binding
[9] = Table 11, subsequent assay, read-out: P. aeruginosa ExsA EC50
[10] = Y. pseudotuberculosis VirF EC50

Sequence of LcrF (VirF) (P28808 whole entry, looked up): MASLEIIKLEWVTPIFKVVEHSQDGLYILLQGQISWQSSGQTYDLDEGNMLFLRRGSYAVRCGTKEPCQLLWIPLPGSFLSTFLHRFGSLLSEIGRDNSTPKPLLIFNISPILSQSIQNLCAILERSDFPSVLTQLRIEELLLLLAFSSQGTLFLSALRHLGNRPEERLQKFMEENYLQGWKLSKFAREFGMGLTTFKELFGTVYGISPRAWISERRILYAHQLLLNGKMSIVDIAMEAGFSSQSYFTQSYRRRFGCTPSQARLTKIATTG

Row | Structure (SMILES) | pEC50 (ExsA; [5]) | pEC50 (LcrF (VirF); [6]) | Efficacy (log10 decrease in the CFU/g kidney tissue) (E. coli UPEC strain C189) | activity at 50 µg/mL (Y. pseudotuberculosis [1]) | pEC50 (SlyA) | pEC50 (ExsA; [9]) | pEC50 (LcrF (VirF); [10]) | further results
1 | CC(=O)Nc1ccccc1-c1nc2ccc([N+](=O)[O-])cc2n1O [BX] |  |  |  |  |  |  |  | ability to intercalate DNA (uncut plasmid DNA): not found to intercalate DNA; inhibition at 50 µg/mL (SoxS; [4]): 30 to 69%
2 | COc1ccc(C(=O)Nc2ccc(-c3nc4ccc([N+](=O)[O-])cc4n3O)cc2)cc1 [B] | < 4.60 | 4.60 to 5.00 | *** (exhibited a 0-1.0 log decrease in CFU/g) | < 75% |  |  |  | inhibition at 50 µg/mL (SoxS; [7]): > 70%
3 | O=[N+]([O-])c1ccc2nc(-c3ccc(Br)cc3)n(O)c2c1 [CA] |  |  |  |  |  |  |  | inhibition at 50 µg/mL (SoxS; [4]): 0 to 29%
4 | O=C(NCc1ccc(-c2nc3ccc([N+](=O)[O-])cc3n2O)cc1)c1ccccc1 [CD] |  |  |  |  |  |  |  | inhibition at 50 µg/mL (SoxS; [4]): 30 to 69%
5 | O=C(Nc1ccc(-c2nc3ccc([N+](=O)[O-])cc3n2O)cc1)c1ccc(Cl)cc1 [CE] |  |  |  |  |  |  |  | inhibition at 25 µg/mL (SoxS; [8]): > 70%
6 | O=C(Nc1ccc(-c2nc3ccc([N+](=O)[O-])cc3n2O)cc1)c1cccc(Cl)c1 [CG] |  |  |  |  |  |  |  | pEC50 (SoxS): 5.31 to 6.00
7 | CC(=O)Nc1ccc(-c2nc3ccc([N+](=O)[O-])cc3n2O)cc1 [CH] |  |  |  |  |  |  |  | inhibition at 50 µg/mL (SoxS; [4]): > 70%
8 | CC(C)(C)C(=O)Nc1ccc(-c2nc3ccc([N+](=O)[O-])cc3n2O)cc1 [CK] |  |  | *** (exhibited a 0-1.0 log decrease in CFU/g) |  |  |  |  | inhibition at 25 µg/mL (SoxS; [8]): > 70%
9 | N#Cc1ccc2nc(-c3ccc(NC(=O)/C=C/c4ccc(F)cc4)cc3)n(O)c2c1 [CM] |  |  |  | 75 to 99% | < 4.82 | > 5.30 | 4.82 to 5.29 | Cytotoxicity at 50 μg/mL Pseudomonas (P. aeruginosa): ** (reduced P. aeruginosa cytotoxicity below 75% of untreated, wild type levels at 50 mg/mL)
10 | COc1cc(F)ccc1C(=O)Nc1ccc(-c2nc3ccc([N+](=O)[O-])cc3n2O)cc1 [DE] |  |  |  | 75 to 99% | < 4.82 | > 5.30 | > 5.30 | Cytotoxicity at 50 μg/mL Pseudomonas (P. aeruginosa): * (reduced P. aeruginosa cytotoxicity to 99-75% of untreated, wild type levels at 50 mg/mL)
11 | CCc1cc(-c2nc3ccc([N+](=O)[O-])cc3n2O)ccc1NC(=O)/C=C/c1ccc(C)cc1 [DP] |  |  |  | < 75% | < 4.82 | 4.82 to 5.29 | > 5.30 | Cytotoxicity at 50 μg/mL Pseudomonas (P. aeruginosa): * (reduced P. aeruginosa cytotoxicity to 99-75% of untreated, wild type levels at 50 mg/mL)
12 | Cc1ccc(C(=O)Nc2ccc(-c3nc4ccc([N+](=O)[O-])cc4n3O)cc2)cc1 [D] | > 5.00 | 4.60 to 5.00 |  | < 75% |  |  |  | pEC50 (SoxS): 5.31 to 6.00
13 | O=C(/C=C/c1ccc(F)cc1)Nc1ccc(-c2nc3ncc([N+](=O)[O-])cc3n2O)c(F)c1 [EH] |  |  |  | < 75% | < 4.82 | > 5.30 | > 5.30 | Cytotoxicity at 50 μg/mL Pseudomonas (P. aeruginosa): * (reduced P. aeruginosa cytotoxicity to 99-75% of untreated, wild type levels at 50 mg/mL)
14 | N#Cc1ccc(C(=O)Nc2ccc(-c3nc4ccc([N+](=O)O)cc4n3O)cc2)cc1 [E] | 4.60 to 5.00 | 4.60 to 5.00 | ** (exhibited a 1.1-2.0 log decrease in CFU/g) | < 75% |  |  |  | 
15 | CC(=O)c1ccc(C(=O)Nc2ccc(-c3nc4ccc([N+](=O)O)cc4n3O)cc2)cc1 [F] | 4.60 to 5.00 | 4.60 to 5.00 | ** (exhibited a 1.1-2.0 log decrease in CFU/g) | < 75% |  |  |  | percent of the starting weight of the infected mice (Y. pseudotuberculosis [2]): approximately 100%; percent survival of infected mice (Y. pseudotuberculosis [2]): 60%; Log Decrease in CFU/g Lung Tissue (Y. pseudotuberculosis [3]): ** (key: ***: exhibited a 0-1.0 log decrease in the CFU/g of LcrF in lung tissue; **: exhibited a 1.1-2.0 log decrease in the CFU/g of LcrF in lung tissue; --: exhibited no efficacy)
16 | O=[N+]([O-])c1ccc2nc(-c3ccccc3)n(O)c2c1 [GB] |  |  |  |  |  |  |  | inhibition at 50 µg/mL (SoxS; [4]): 30 to 69%
17 | Cc1ccc(-c2nc3ccc([N+](=O)[O-])cc3n2O)o1 [GC] |  |  | ** (exhibited a 1.1-2.0 log decrease in CFU/g) |  |  |  |  | inhibition at 50 µg/mL (SoxS; [7]): 30 to 69%
18 | O=C(Nc1ccc(-c2nc3ccc([N+](=O)O)cc3n2O)cc1)c1ccc(-c2cnco2)cc1 [H] | > 5.00 | 4.60 to 5.00 | ** (exhibited a 1.1-2.0 log decrease in CFU/g) | < 75% |  |  |  | percent of the starting weight of the infected mice (Y. pseudotuberculosis [2]): approximately 100%; percent survival of infected mice (Y. pseudotuberculosis [2]): 80%; Log Decrease in CFU/g Lung Tissue (Y. pseudotuberculosis [3]): *** (key: ***: exhibited a 0-1.0 log decrease in the CFU/g of LcrF in lung tissue; **: exhibited a 1.1-2.0 log decrease in the CFU/g of LcrF in lung tissue; --: exhibited no efficacy)
19 | Cc1ccc(/C=C/C(=O)Nc2ccc(-c3nc4ccc([N+](=O)O)cc4n3O)cc2)cc1 [S] | > 5.00 | > 5.00 |  |  | < 4.82 | > 5.30 | > 5.30 | 
20 | O=C(/C=C/c1ccc(F)cc1F)Nc1ccc(-c2nc3ccc([N+](=O)[O-])cc3n2O)cc1 [V] | > 5.00 | > 5.00 |  |  | < 4.82 | > 5.30 | > 5.30 | 
